# ChEMBL document CHEMBL4680302, “Biologic-like In Vivo Efficacy with Small Molecule Inhibitors of TNFα Identified Using Scaffold Hopping and Structure-Based Drug Design Approaches” (J Med Chem, 2020)
# The source made the active and inactive calls. The calls are words filed in the database; no cut-off is given here.
# What was measured:
# Tumor necrosis factor [1] = molecular target: T1, Tumor necrosis factor (Homo sapiens, UniProt P01375); experiment: Displacement of fluorescent labeled probe from human recombinant His-tagged TNFalpha (77 to 233 residues) expressed in Escherichia coli preincubated for 1 hr followed by fluorogenic probe addition and measured after 3 hrs by HTRF assay
# [2] = Metabolic stability in mouse liver microsomes assessed as parent compound remaining after 10 mins; assay type: ADME, Microsome; details: read-out: Stabilty
# Cytochrome P450 2C19 = Cytochrome P450 2C19 (Homo sapiens, UniProt P33261); experiment: Inhibition of recombinant CYP2C19 (unknown origin); assay type: ADME
# Tumor necrosis factor [3] = molecular target: T1, Tumor necrosis factor; experiment: Inhibition of human recombinant His-tagged TNF-alpha-mediated E-selectin expression in HUVEC cells preincubated for 30 mins in presence of TNFalpha and measured after 3 hrs by flow cytometry analysis; assay type: cell-based
# [4] = Metabolic stability in human liver microsomes assessed as half-life; assay type: ADME, Microsome
# [5] = Metabolic stability in rat liver microsomes assessed as half-life; assay type: ADME, Microsome
# [6] = Permeability of the compound across apical to basolateral side of membrane in human Caco-2 cells; assay type: ADME, cell-based; details: read-out: permeability
# Cytochrome P450 2D6 = Cytochrome P450 2D6 (Homo sapiens, UniProt P10635); experiment: Inhibition of recombinant CYP2D6 (unknown origin); assay type: ADME
# Cytochrome P450 3A4 = Cytochrome P450 3A4 (Homo sapiens, UniProt P08684); experiment: Inhibition of recombinant CYP3A4 (unknown origin) in presence of BFC as substrate; assay type: ADME
# [7] = Total AUC in mouse at 0.5 mg/kg, iv; assay type: ADME, organism-based; design: route intravenous, time AUCmax, dose 0.5 mg/kg; details: in vivo
# [8] = Total AUC in mouse at 2 mg/kg, po; assay type: ADME, organism-based; design: time AUCmax, route oral, dose 2 mg/kg; details: in vivo
# [9] = Volume of distribution at steady state in mouse at 0.5 mg/kg, iv; assay type: ADME, organism-based; details: in vivo, read-out: Vdss
# Mus musculus [10] = experiment: Antiinflammatory activity in TNFalpha-induced C57BL/6J mouse assessed as inhibition of serum IL-6 levels at 5 to 25 mg/kg, po pretreated with compound prior to 1 hr of TNFalpha challenge and measured 2 hrs post TBFalpha challenge by ELISA; assay type: functional, organism-based; details: dose 5-25 mg/kg, time 3.0 hrs
# [11] = Drug exposure in TNFalpha-induced C57BL/6J mouse at 25 mg/kg, po pretreated with compound prior to 1 hr of TNFalpha challenge and measured at 3 hrs post dose; assay type: ADME, organism-based; details: in vivo, read-out: Drug uptake
# Mus musculus [12] = experiment: Antiarthritic activity against anticollagen antibody-induced arthritis BALB/c mouse model assessed as reduction in paw inflammation administered orally twice a day followed by LPS stimulation after 6 hrs measured until day 12; assay type: functional, organism-based; details: dose 2-10 mg/kg, time 12.0 day
# Mus musculus [13] = experiment: Antiarthritic activity against anticollagen antibody-induced arthritis BALB/c mouse model assessed as reduction in swelling of digits administered orally twice a day followed by LPS stimulation after 6 hrs measured until day 12; assay type: functional, organism-based; details: dose 2-10 mg/kg, time 12.0 day
# Mus musculus [14] = experiment: Antiarthritic activity against anticollagen antibody-induced arthritis BALB/c mouse model assessed as reduction in LPS-induced IL-6 production administered orally twice daily followed by LPS stimulation after 6 hrs measured on day 12 by RT-PCR analysis; assay type: functional, organism-based; details: dose 2-10 mg/kg, time 12.0 day
# Mus musculus [15] = experiment: Antiarthritic activity against anticollagen antibody-induced arthritis BALB/c mouse model assessed as reduction in LPS-induced TNFalpha production administered orally twice daily followed by LPS stimulation after 6 hrs measured on day 12 by RT-PCR analysis; assay type: functional, organism-based; details: dose 2-10 mg/kg, time 12.0 day
# Mus musculus [16] = experiment: Antiarthritic activity against anticollagen antibody-induced arthritis BALB/c mouse model assessed as reduction in LPS-induced MCP-1 levels administered orally twice daily followed by LPS stimulation after 6 hrs measured on day 12 by RT-PCR analysis; assay type: functional, organism-based; details: dose 2-10 mg/kg, time 12.0 day
# Mus musculus [17] = experiment: Antiarthritic activity against anticollagen antibody-induced arthritis BALB/c mouse model assessed as reduction in LPS-induced CXCL12 levels administered orally twice daily followed by LPS stimulation after 6 hrs measured on day 12 by RT-PCR analysis; assay type: functional, organism-based; details: dose 2-10 mg/kg, time 12.0 day
# Mus musculus [18] = experiment: Antiarthritic activity against anticollagen antibody-induced arthritis BALB/c mouse model assessed as reduction in LPS-induced IL-17a production administered orally twice daily followed by LPS stimulation after 6 hrs measured on day 12 by RT-PCR analysis; assay type: functional, organism-based; details: dose 2-10 mg/kg, time 12.0 day
# [19] = Terminal drug exposure in anticollagen antibody-induced arthritis BALB/c mouse model at 2 mg/kg, po BID followed by LPS stimulation after 6 hrs measured on day 12; assay type: ADME, organism-based; details: in vivo, time 12 day, read-out: Drug uptake
# [20] = Selectivity ratio of drug exposure in anticollagen antibody-induced arthritis BALB/c mouse model at 10 mg/kg, po BID for 12 days to IC50 for inhibition of human TNFalpha expressed in HEK-Blue-CD40L cells assessed as inhibition of NFkappaB activation by quanti-blue based SEAP assay
# [21] = molecular target: Voltage-gated inwardly rectifying potassium channel KCNH2 (Homo sapiens, UniProt Q12809); experiment: Inhibition of human ERG by patch clamp assay
# [22] = molecular target: T2, Tumor necrosis factor ligand superfamily member 6 (Homo sapiens, UniProt P48023); experiment: Inhibition of FasL (unknown origin)
# T2 sequence (P48023 whole entry): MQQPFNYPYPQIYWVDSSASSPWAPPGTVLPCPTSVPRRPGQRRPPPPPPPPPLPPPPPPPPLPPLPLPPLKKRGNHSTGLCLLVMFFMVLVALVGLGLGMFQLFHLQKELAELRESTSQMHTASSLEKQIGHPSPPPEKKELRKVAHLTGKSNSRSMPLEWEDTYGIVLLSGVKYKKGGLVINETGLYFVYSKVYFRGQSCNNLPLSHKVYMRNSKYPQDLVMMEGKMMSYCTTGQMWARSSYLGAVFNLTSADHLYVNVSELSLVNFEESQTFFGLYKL
# [23] = molecular target: T3, Tumor necrosis factor receptor superfamily member 1A (Homo sapiens) (UniProt P19438); experiment: Binding affinity to TNFR1 (unknown origin) assessed as sedimentation coefficient (S) value at 25 uM by ultracentrifugation analysis (reference value: 2.2)
# T3 sequence (whole entry): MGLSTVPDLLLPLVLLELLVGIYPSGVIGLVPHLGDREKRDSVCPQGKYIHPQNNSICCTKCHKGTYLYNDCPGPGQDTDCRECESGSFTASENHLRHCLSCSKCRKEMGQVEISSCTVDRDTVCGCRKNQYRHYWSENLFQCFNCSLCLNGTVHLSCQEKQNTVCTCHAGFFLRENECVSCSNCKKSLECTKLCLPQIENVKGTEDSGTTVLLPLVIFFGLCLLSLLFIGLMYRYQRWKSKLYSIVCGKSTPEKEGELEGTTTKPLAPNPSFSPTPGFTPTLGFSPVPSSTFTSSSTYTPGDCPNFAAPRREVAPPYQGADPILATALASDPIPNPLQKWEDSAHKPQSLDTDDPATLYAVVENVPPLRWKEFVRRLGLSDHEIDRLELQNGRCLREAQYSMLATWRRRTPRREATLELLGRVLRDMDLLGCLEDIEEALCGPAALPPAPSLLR
# [24] = molecular target: T3, Tumor necrosis factor receptor superfamily member 1A (Homo sapiens); experiment: Binding affinity to TNFR1 (unknown origin) assessed as apparent molecular weight of protein at 25 uM in presence of human TNFalpha by ultracentrifugation analysis (reference value: 27 kDa)
# T1 sequence (P01375 whole entry, the tested form may be a part): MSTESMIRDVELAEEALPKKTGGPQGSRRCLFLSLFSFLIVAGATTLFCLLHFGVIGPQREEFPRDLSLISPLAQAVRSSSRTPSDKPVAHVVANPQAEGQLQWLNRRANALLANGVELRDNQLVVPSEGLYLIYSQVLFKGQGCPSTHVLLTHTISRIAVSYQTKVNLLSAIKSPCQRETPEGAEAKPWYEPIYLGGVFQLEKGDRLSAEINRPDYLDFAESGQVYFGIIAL
# Sequence of Cytochrome P450 3A4 (P08684 whole entry): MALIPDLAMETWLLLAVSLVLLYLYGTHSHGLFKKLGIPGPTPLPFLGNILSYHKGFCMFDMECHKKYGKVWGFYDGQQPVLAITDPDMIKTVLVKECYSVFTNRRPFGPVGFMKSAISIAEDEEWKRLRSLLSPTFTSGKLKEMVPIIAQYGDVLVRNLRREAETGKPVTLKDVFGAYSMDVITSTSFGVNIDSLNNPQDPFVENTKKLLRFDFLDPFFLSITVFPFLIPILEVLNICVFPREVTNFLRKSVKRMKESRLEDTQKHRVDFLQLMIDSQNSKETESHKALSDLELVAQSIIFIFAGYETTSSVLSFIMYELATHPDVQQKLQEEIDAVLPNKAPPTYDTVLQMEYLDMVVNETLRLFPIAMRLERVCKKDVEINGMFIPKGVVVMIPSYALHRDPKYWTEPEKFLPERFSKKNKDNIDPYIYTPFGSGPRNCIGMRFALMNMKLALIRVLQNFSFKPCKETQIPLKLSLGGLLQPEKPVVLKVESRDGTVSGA
# Sequence of Cytochrome P450 2C19 (P33261 whole entry): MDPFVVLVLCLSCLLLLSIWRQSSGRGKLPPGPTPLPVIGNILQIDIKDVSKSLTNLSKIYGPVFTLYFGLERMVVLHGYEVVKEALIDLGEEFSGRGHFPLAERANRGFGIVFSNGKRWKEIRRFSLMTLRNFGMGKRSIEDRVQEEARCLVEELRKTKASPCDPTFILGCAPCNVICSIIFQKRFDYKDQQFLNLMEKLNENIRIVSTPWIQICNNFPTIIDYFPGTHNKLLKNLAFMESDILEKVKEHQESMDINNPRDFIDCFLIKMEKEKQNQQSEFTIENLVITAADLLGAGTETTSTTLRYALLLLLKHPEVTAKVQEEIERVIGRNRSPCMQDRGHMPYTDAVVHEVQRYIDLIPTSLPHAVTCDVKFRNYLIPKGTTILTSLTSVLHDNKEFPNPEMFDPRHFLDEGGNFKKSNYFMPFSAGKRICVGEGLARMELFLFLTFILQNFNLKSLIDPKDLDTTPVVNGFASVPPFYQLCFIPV
# Sequence of Voltage-gated inwardly rectifying potassium channel KCNH2 (Q12809 whole entry): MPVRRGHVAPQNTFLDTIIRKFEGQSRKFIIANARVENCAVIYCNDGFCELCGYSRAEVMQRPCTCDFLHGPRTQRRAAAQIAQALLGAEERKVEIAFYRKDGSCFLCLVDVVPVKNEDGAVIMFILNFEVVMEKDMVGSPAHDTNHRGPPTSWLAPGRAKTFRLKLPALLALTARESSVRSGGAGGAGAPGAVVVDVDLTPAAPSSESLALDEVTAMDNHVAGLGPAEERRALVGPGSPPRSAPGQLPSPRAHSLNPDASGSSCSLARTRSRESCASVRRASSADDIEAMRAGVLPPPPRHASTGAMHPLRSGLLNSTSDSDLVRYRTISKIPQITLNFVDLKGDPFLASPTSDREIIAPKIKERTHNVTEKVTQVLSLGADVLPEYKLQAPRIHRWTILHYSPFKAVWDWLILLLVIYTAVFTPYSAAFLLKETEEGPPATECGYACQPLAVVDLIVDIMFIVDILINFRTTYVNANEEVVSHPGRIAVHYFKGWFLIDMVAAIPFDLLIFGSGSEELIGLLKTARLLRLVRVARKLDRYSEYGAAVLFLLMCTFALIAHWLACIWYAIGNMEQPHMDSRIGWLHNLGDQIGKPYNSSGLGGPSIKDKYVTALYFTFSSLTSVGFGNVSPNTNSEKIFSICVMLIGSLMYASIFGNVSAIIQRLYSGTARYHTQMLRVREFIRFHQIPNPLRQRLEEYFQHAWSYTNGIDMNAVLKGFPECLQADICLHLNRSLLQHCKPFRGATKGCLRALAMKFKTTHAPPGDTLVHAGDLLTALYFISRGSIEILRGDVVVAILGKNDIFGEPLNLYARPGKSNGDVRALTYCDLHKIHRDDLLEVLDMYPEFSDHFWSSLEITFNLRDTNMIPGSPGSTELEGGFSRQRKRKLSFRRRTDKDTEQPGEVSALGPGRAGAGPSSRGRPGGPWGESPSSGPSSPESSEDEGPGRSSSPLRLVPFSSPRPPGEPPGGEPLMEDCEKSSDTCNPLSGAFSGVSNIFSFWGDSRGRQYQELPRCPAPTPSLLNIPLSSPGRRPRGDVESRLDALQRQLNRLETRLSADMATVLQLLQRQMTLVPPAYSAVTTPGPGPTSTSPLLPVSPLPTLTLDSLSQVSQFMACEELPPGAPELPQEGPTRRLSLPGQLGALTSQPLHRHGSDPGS
# Sequence of Cytochrome P450 2D6 (P10635 whole entry): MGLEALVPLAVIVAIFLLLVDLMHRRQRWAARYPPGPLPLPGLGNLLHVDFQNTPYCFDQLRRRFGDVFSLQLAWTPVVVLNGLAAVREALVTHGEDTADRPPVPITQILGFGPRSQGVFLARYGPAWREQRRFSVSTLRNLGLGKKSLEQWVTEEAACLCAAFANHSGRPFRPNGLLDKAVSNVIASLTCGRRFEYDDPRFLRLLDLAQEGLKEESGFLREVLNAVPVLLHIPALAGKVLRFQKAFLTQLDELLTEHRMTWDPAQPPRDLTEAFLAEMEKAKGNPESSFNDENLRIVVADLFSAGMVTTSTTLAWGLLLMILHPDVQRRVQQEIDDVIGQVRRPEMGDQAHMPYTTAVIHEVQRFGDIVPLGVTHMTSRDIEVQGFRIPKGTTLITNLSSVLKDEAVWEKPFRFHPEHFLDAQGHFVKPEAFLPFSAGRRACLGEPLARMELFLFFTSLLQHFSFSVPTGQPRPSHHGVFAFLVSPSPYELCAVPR
structure (smiles),measurement,setting,value
Cc1nc2cc(F)c(-c3cnc(C(C)(C)O)nc3)nc2c(N[C@H](C)c2cc(C#N)ccc2F)c1Cl,IC50,Tumor necrosis factor [1],0.025 µM
same,remaining at 10 min,[2],86%
same,IC50,Cytochrome P450 2C19,> 20 µM
same,IC50,Tumor necrosis factor [3],0.03 µM
same,half-life,[4],> 2 h
same,half-life,[5],1.15 h
same,Papp A→B,[6],20 ×10⁻⁶ cm/s
same,IC50,Cytochrome P450 2D6,> 20 µM
same,IC50,Cytochrome P450 3A4,> 20 µM
same,AUC,[7],2.5 µM·h
same,AUC,[8],5.9 µM·h
same,Vd,[9],3.2 L/kg
same,Activity,Mus musculus [10],Active
same,concentration at 3 h,[11],1860 nM
same,Activity,Mus musculus [12],Dose-dependent effect
same,Activity,Mus musculus [13],Dose-dependent effect
same,Activity,Mus musculus [14],Dose-dependent effect
same,Activity,Mus musculus [15],Dose-dependent effect
same,Activity,Mus musculus [16],Dose-dependent effect
same,Activity,Mus musculus [17],Dose-dependent effect
same,Activity,Mus musculus [18],Dose-dependent effect
same,concentration at 288 h,[19],340 nM
same,Selectivity ratio,[20],4.4
same,IC50,[21],5.6 µM
same,IC50,[22],> 10 µM
same,Activity index,[23],2.2
same,Activity,[24],28 kDa
